The values below come from ChEMBL document CHEMBL5390244, “Riboflavin interactions with the chicken isolated carrier protein” (Bioorg Med Chem Lett, 2023).

Calls of active or inactive are those of the source. The rule behind the calls is not given here.

The target of experiment [1] is T1, Riboflavin-binding protein (Gallus gallus) (UniProt P02752).
T1 sequence (whole entry): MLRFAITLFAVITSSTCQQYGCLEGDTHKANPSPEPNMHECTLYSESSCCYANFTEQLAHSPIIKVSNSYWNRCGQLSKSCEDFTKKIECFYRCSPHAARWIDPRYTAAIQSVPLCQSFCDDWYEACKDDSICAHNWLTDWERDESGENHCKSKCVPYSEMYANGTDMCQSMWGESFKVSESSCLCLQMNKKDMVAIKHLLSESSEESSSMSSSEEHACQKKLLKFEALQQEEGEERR
Briefly: Binding affinity to chicken riboflavin binding protein assessed as binding energy by fluorescence based analysis.

The target of experiment [2] is T1, Riboflavin-binding protein (Gallus gallus). Briefly: Binding affinity to chicken riboflavin binding protein assessed as decrease in fluorescence intensity at upto 250 uM by fluorescence based assay.

Regarding `Cc1cc2nc3c(=O)[nH]c(=O)nc-3n(CCCCCCO)c2cc1C`, in experiment [1], the Activity came out at 2 kcal/mol. In addition, the outcome in experiment [2] was Active.

Turning to `Cc1cc2nc3c(=O)[nH]c(=O)nc-3n(C[C@H](O)[C@H](O)[C@H](O)CO)c2cc1C`, in experiment [1], the Activity is -11.9 kcal/mol. Besides, the result in experiment [2] was Active.
